Reference: ChEMBL document CHEMBL2157909, “Design, synthesis, spectral and biological evaluation of novel 1-allyl substituted 2,6-diphenylpiperidin-4-ones and its derivatives of oximes/oxime ethers” (2012)
Values after ≈ are worked out from the molar mass of the structure shown.

Columns and labels:
Bacillus subtilis = experiment: Antibacterial activity against Bacillus subtilis ATCC 530 after 24 hrs by two fold serial dilution method; assay type: functional; settings: ATCC 530, 24 h
Penicillium chrysogenum = experiment: Antifungal activity against Penicillium chrysogenum ATCC 28089 after 72 to 96 hrs by two fold serial dilution method; assay type: functional
Staphylococcus aureus = experiment: Antibacterial activity against Staphylococcus aureus ATCC 25930 after 24 hrs by two fold serial dilution method; assay type: functional; settings: ATCC 25930, 24 h
Aspergillus flavus = experiment: Antifungal activity against Aspergillus flavus ATCC 525 after 72 to 96 hrs by two fold serial dilution method; assay type: functional
Pseudomonas = experiment: Antibacterial activity against Pseudomonas ATCC 27853 after 24 hrs by two fold serial dilution method; assay type: functional; settings: ATCC 27853, 24 h
Salmonella typhi = experiment: Antibacterial activity against Salmonella typhi ATCC 25021 after 24 hrs by two fold serial dilution method; assay type: functional, Salmonella enterica subsp. enterica serovar Typhi; settings: Salmonella enterica, ATCC 25021, 24 h
Fusarium oxysporum = experiment: Antifungal activity against Fusarium oxysporum ATCC 48112 after 72 to 96 hrs by two fold serial dilution method; assay type: functional
Aspergillus niger = experiment: Antifungal activity against Aspergillus niger ATCC 635 after 72 to 96 hrs by two fold serial dilution method; assay type: functional
Rhizopus = experiment: Antifungal activity against Rhizopus sp. ATCC 2842 after 72 to 96 hrs by two fold serial dilution method; assay type: functional
Escherichia coli = experiment: Antibacterial activity against Escherichia coli ATCC 26032 after 24 hrs by two fold serial dilution method; assay type: functional; settings: ATCC 26032, 24 h

Compound | MIC (Bacillus subtilis) | MIC (Penicillium chrysogenum) | MIC (Staphylococcus aureus) | MIC (Aspergillus flavus) | MIC (Pseudomonas) | MIC (Salmonella typhi) | MIC (Fusarium oxysporum) | MIC (Aspergillus niger) | MIC (Rhizopus) | MIC (Escherichia coli)
C=CCN1[C@@H](c2ccccc2)CC(=O)C[C@H]1c1ccccc1 | 100 mg/L (≈ 343 µM) | 12.5 mg/L (≈ 42.9 µM) | 6.25 mg/L (≈ 21.4 µM) | 100 mg/L (≈ 343 µM) | 25 mg/L (≈ 85.8 µM) | 50 mg/L (≈ 172 µM) | 100 mg/L (≈ 343 µM) | 25 mg/L (≈ 85.8 µM) | 50 mg/L (≈ 172 µM) | 200 mg/L (≈ 686 µM)
C=CCN1[C@H](c2ccccc2)[C@@H](C)C(=O)[C@@H](C)[C@@H]1c1ccccc1 | 25 mg/L (≈ 78.3 µM) | 50 mg/L (≈ 157 µM) | 12.5 mg/L (≈ 39.1 µM) | 100 mg/L (≈ 313 µM) | 50 mg/L (≈ 157 µM) | 100 mg/L (≈ 313 µM) | 50 mg/L (≈ 157 µM) | 100 mg/L (≈ 313 µM) | 200 mg/L (≈ 626 µM) | 100 mg/L (≈ 313 µM)
C=CCN1[C@@H](c2ccccc2)C/C(=N/O)C[C@H]1c1ccccc1 (relative stereo) | 6.25 mg/L (≈ 20.4 µM) | 50 mg/L (≈ 163 µM) | 50 mg/L (≈ 163 µM) | 25 mg/L (≈ 81.6 µM) | 50 mg/L (≈ 163 µM) | 100 mg/L (≈ 326 µM) | 50 mg/L (≈ 163 µM) | 12.5 mg/L (≈ 40.8 µM) | 25 mg/L (≈ 81.6 µM) | 25 mg/L (≈ 81.6 µM)
C=CCN1[C@H](c2ccccc2)[C@@H](C)/C(=N/O)[C@@H](C)[C@@H]1c1ccccc1 (relative stereo) | 25 mg/L (≈ 74.7 µM) | 100 mg/L (≈ 299 µM) | 50 mg/L (≈ 149 µM) | 100 mg/L (≈ 299 µM) | 50 mg/L (≈ 149 µM) | 100 mg/L (≈ 299 µM) | 50 mg/L (≈ 149 µM) | 50 mg/L (≈ 149 µM) | 200 mg/L (≈ 598 µM) | 50 mg/L (≈ 149 µM)
C=CCN1[C@H](c2ccccc2)C/C(=N\O)[C@@H](CC)[C@@H]1c1ccccc1 (relative stereo) | 12.5 mg/L (≈ 37.4 µM) | 50 mg/L (≈ 149 µM) | 25 mg/L (≈ 74.7 µM) | 6.25 mg/L (≈ 18.7 µM) | 50 mg/L (≈ 149 µM) | 25 mg/L (≈ 74.7 µM) | 25 mg/L (≈ 74.7 µM) | 12.5 mg/L (≈ 37.4 µM) | 50 mg/L (≈ 149 µM) | 100 mg/L (≈ 299 µM)
C=CCN1[C@@H](c2ccccc2)C(C)(C)/C(=N/O)C[C@H]1c1ccccc1 (relative stereo) | 25 mg/L (≈ 74.7 µM) | 12.5 mg/L (≈ 37.4 µM) | 12.5 mg/L (≈ 37.4 µM) | 25 mg/L (≈ 74.7 µM) | 50 mg/L (≈ 149 µM) | 100 mg/L (≈ 299 µM) | 50 mg/L (≈ 149 µM) | 25 mg/L (≈ 74.7 µM) | 25 mg/L (≈ 74.7 µM) | 100 mg/L (≈ 299 µM)
C=CCN1[C@H](c2ccccc2)C/C(=N\OCc2ccccc2)[C@@H](C)[C@@H]1c1ccccc1 (relative stereo) | 6.25 mg/L (≈ 15.2 µM) | 100 mg/L (≈ 244 µM) | 50 mg/L (≈ 122 µM) | 50 mg/L (≈ 122 µM) | 50 mg/L (≈ 122 µM) | 12.5 mg/L (≈ 30.4 µM) | 200 mg/L (≈ 487 µM) | 50 mg/L (≈ 122 µM) | 25 mg/L (≈ 60.9 µM) | 25 mg/L (≈ 60.9 µM)
C=CCN1[C@H](c2ccc(C)cc2)C/C(=N\OCc2ccccc2)[C@@H](C)[C@@H]1c1ccc(C)cc1 (relative stereo) | 50 mg/L (≈ 114 µM) | 6.25 mg/L (≈ 14.2 µM) | 100 mg/L (≈ 228 µM) | 100 mg/L (≈ 228 µM) | 100 mg/L (≈ 228 µM) | 50 mg/L (≈ 114 µM) | 100 mg/L (≈ 228 µM) | 12.5 mg/L (≈ 28.5 µM) | 50 mg/L (≈ 114 µM) | 200 mg/L (≈ 456 µM)
C=CCN1[C@H](c2ccc(Cl)cc2)C/C(=N\OCc2ccccc2)[C@@H](C)[C@@H]1c1ccc(Cl)cc1 (relative stereo) | 25 mg/L (≈ 52.1 µM) | 6.25 mg/L (≈ 13 µM) | 6.25 mg/L (≈ 13 µM) | 12.5 mg/L (≈ 26.1 µM) | 100 mg/L (≈ 209 µM) | 50 mg/L (≈ 104 µM) | 25 mg/L (≈ 52.1 µM) | 25 mg/L (≈ 52.1 µM) | 6.25 mg/L (≈ 13 µM) | 12.5 mg/L (≈ 26.1 µM)
C=CCN1[C@H](c2ccc(OC)cc2)C/C(=N\OCc2ccccc2)[C@@H](C)[C@@H]1c1ccc(OC)cc1 (relative stereo) | 50 mg/L (≈ 106 µM) | 50 mg/L (≈ 106 µM) | 12.5 mg/L (≈ 26.6 µM) | 100 mg/L (≈ 212 µM) | 6.25 mg/L (≈ 13.3 µM) | 25 mg/L (≈ 53.1 µM) | 6.25 mg/L (≈ 13.3 µM) | 12.5 mg/L (≈ 26.6 µM) | 25 mg/L (≈ 53.1 µM) | 100 mg/L (≈ 212 µM)
